Experimental data: PubChem BioAssay (NCI)
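Protocol summary: plate cells (96-well), add compound at 5 concentrations, incubate 48 h, interpolate endpoints linearly. GI50 is the concentration that inhibits growth by half. Definition used: TGI = concentration required for complete inhibition of growth.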

Experiments:
Experiment in all cases: NCI anticancer screen, dose series, 48 h
[1] = test system: OVCAR-5 ovarian
[2] = test system: NCI-H23 lung
[3] = test system: SNB-19 CNS
[4] = test system: HCT-15 colon
[5] = test system: LOX IMVI melanoma
[6] = test system: CCRF-CEM leukemia
[7] = test system: NCI-H522 lung
[8] = test system: MOLT-4 leukemia
[9] = test system: M14 melanoma
[10] = test system: HL-60(TB) leukemia

CN(C)CC/C(=N\Nc1ccc([N+](=O)[O-])cc1)c1ccccc1
TGI [1]: 28.2 µM
TGI [2]: 27.1 µM
TGI [3]: 28.9 µM
TGI [4]: 27.2 µM
TGI [5]: 18.1 µM
TGI [6]: 23.6 µM
TGI [7]: 29.1 µM
TGI [8]: 24.5 µM
TGI [9]: 30.8 µM
TGI [10]: 16.3 µM

Cc1nn2c(/C=C3\C(=O)Nc4ccc(Cl)cc43)c(C)nc2s1
GI50 [1]: > 100 µM
TGI [1]: > 100 µM
GI50 [2]: 77.1 µM
TGI [2]: > 100 µM
GI50 [3]: 26.9 µM
TGI [3]: > 100 µM
GI50 [4]: 13.9 µM
TGI [4]: > 100 µM
GI50 [5]: 83.1 µM
TGI [5]: > 100 µM
GI50 [6]: 21.1 µM
TGI [6]: > 100 µM
GI50 [7]: 6 µM
TGI [7]: 39 µM
GI50 [8]: 35.6 µM
TGI [8]: > 100 µM
GI50 [9]: 23.2 µM
TGI [9]: > 100 µM
GI50 [10]: 13.5 µM
TGI [10]: 43.4 µM

CC/C=C1/C(=O)C=C[C@@H]1C/C=C\CCCC(=O)OC
GI50 [1]: 4.73 µM
TGI [1]: 15.1 µM
GI50 [2]: 2.17 µM
TGI [2]: 5.86 µM
GI50 [3]: 3.27 µM
TGI [3]: 12.9 µM
GI50 [4]: 1.94 µM
TGI [4]: 5.31 µM
GI50 [5]: 0.505 µM
TGI [5]: 1.91 µM
GI50 [6]: 0.519 µM
TGI [6]: 10.6 µM
GI50 [7]: 1.56 µM
TGI [7]: 3.57 µM
GI50 [8]: 1.37 µM
TGI [8]: 8.11 µM
GI50 [9]: 2.8 µM
TGI [9]: 10.8 µM
GI50 [10]: 2.17 µM
TGI [10]: 6.94 µM

C=C1C(=O)O[C@H]2[C@H]1CC/C(COC(=O)NCc1ccc(Cn3c(=O)sn(CCCl)c3=O)cc1)=C\CC[C@@]1(C)O[C@@H]21
GI50 [1]: 1.97 µM
TGI [1]: 4.19 µM
GI50 [2]: 2.18 µM
TGI [2]: 5.2 µM
GI50 [3]: 11.9 µM
TGI [3]: 26.1 µM
GI50 [4]: 1.85 µM
TGI [4]: 3.82 µM
GI50 [5]: 1.69 µM
TGI [5]: 3.12 µM
GI50 [6]: 1.73 µM
TGI [6]: 7 µM
GI50 [7]: 1.38 µM
TGI [7]: 2.98 µM
GI50 [8]: 1.85 µM
TGI [8]: 5.92 µM
GI50 [9]: 1.82 µM
TGI [9]: 3.65 µM
GI50 [10]: 1.92 µM
TGI [10]: 4.96 µM

CCS(CC)(CC)CC1CCCC2=CCC(P(=O)(c3ccccc3)c3ccccc3)CC21 (stereo not given)
TGI [1]: 30.4 µM
TGI [2]: 25.6 µM
TGI [3]: 29 µM
TGI [4]: 21.8 µM
TGI [5]: 34.9 µM
TGI [6]: 31 µM
TGI [7]: 25.5 µM
TGI [8]: 25.2 µM
TGI [9]: 25.6 µM
TGI [10]: 12.3 µM

CC(C)[C@H](N)C(=O)N1CCC[C@H]1B(O)O
GI50 [1]: > 100 µM
TGI [1]: > 100 µM
GI50 [2]: > 100 µM
TGI [2]: > 100 µM
GI50 [3]: > 100 µM
TGI [3]: > 100 µM
GI50 [4]: > 100 µM
TGI [4]: > 100 µM
GI50 [5]: > 100 µM
TGI [5]: > 100 µM
GI50 [6]: > 100 µM
TGI [6]: > 100 µM
GI50 [7]: > 100 µM
TGI [7]: > 100 µM
GI50 [8]: > 100 µM
TGI [8]: > 100 µM
GI50 [9]: > 100 µM
TGI [9]: > 100 µM
GI50 [10]: > 100 µM
TGI [10]: > 100 µM

COc1cc(CSc2nc3ccc(C)cc3c(=O)n2-c2ccccc2)cc(OC)c1OC
GI50 [1]: 6.26 µM
TGI [1]: > 100 µM
GI50 [2]: 6.97 µM
TGI [2]: > 100 µM
GI50 [3]: 13.8 µM
TGI [3]: > 100 µM
GI50 [4]: 0.577 µM
TGI [4]: > 100 µM
GI50 [5]: 4.13 µM
TGI [5]: > 100 µM
GI50 [6]: 2.66 µM
TGI [6]: > 100 µM
GI50 [7]: 1.44 µM
TGI [7]: > 25.3 µM
GI50 [8]: 3.85 µM
TGI [8]: > 100 µM
GI50 [9]: 1.4 µM
TGI [9]: > 100 µM
GI50 [10]: 1.72 µM
TGI [10]: > 100 µM
